Each block holds one compound with its values, some of them ahead of it.
Tests used:
[1] = release of CPT-ketone 2a from prodrug 6 with and without UV irradiation; assay type: physicochemical
[2] = test system: U-87 human primary glioblastoma cell; assay: tumor cell-growth inhibition assay, U-87 cells; assay type: cell-based; settings: U-87 MG
Description: (§1) In order to find out whether the new derivatives retain their potency, the cytotoxicity of the CPT-, TMZ- and bosutinib-ketone analogues was evaluated in comparison to that of the parent drugs.
To determine the usefulness of the drug analogues produced harboring a ketone for controlled release and bioconjugation. CPT-ketone 2a was selected for further evaluation. As presented in Scheme 1, a ketone functional group can be masked either through an acid-labile hydrazone linkage or with a photo-labile ketal protecting group. CPT-ketone 2a was masked with a photo-labile protecting group (Gravel et al., 1983; Klan et al., 2013) to produce ketal derivative 6 (FIG. 5). This derivative can be considered as prodrug form of CPT-ketone 2a. […] The cytotoxicity of prodrug 6 was then evaluated in a standard cell-growth inhibition assay before and after irradiation with UV light (FIG. 5B). […] In this example, the prodrug was activated with UV light; however, there are analogues protecting groups that can be removed through a visible or near infrared light (Lu et al., 2003).

[3] = test system: U-251; assay: tumor cell-growth inhibition assay, U-251 cells; assay type: cell-based; settings: Homo sapiens; cell line U-251
Description: as §1

[4] = test system: SF-295; assay: tumor cell-growth inhibition assay, SF-295 cells; assay type: cell-based; settings: Homo sapiens; cell line SF-295
Description: as §1

[5] = test system: tumorous cell-lines; assay: tumor cell-growth inhibition assays of ketone derivatives vs native drugs, several tumorous cell-lines; assay type: cell-based; settings: repeated with several tumorous cell-lines
Description: as §1
The assays were repeated with several tumorous cell-lines and the obtained results were similar (FIGS. 3-4).

[6] = test system: HiFR KB cells; assay: proliferation (MTT) assay on KB HiFR cells; assay type: cell-based; settings: human
Description: Proliferation Assay KB HiFR were seeded in 96 well/plates, 2×10^3 cell/100 μL in folate depleted RPMI+10% FBS. After 24 h incubation at 37° C., 5% CO2, 100 μL of serial dilutions (200-0.00002 μM CPT equivalent concentrations) of CPT and CPT-derivatives were added to the wells (final concentration 100-0.00001 μM). In the short exposure (pulse and chase) experiment the treatments were removed after 10 min incubation at 37° C., 5% CO2, the cells were washed once with PBS and incubated with fresh folate depleted RPMI+10% FBS for 72 h. In the long exposure experiment, the cells were incubated for 72 h with the treatment. After 72 h incubation, 30 μL of […] of MTT (3-(4,5-dimethylthiazol-2-yl)-2,5-diphenyltetrazolium bromide) in PBS were added to each well, and incubated for 5 h. After incubation the medium was removed and the cells lysed in 200 μL DMSO and kept under gentle stirring protected from light for 20 min. Absorbance was measured at 560 nm and survival plotted as percentage of untreated control.

SMILES: CCC1(O)C(=O)OCc2c1cc1n(c2=O)Cc2c-1nc1ccccc1c2C(F)(F)CCCC1(C)OCC(c2cc(OC)c(OC)cc2[N+](=O)[O-])O1 (stereo not shown) [Compound 6]
release of CPT-ketone 2a ([1]; irradiation with UV light over 2 hours under physiological conditions): resulted in release of CPT-ketone 2a | release of CPT-ketone 2a ([1]; without irradiation): No release was observed | IC50 ([2]; light or radiation study, prodrug after irradiation with UV light): 10 nM | IC50 ([2]; light or radiation study, prodrug before irradiation with UV light): 350 nM

SMILES: CC[C@@]1(O)C(=O)OCc2c1cc1n(c2=O)Cc2cc3ccccc3nc2-1 [CPT, camptothecin, reference compound]
IC50 ([2]; cell line U-87): 7 nM

SMILES: CC(=O)CCCC(F)(F)c1nc2nc(N)nc(N)c2nc1CN(C)c1ccc(C(=O)NC(CCC(=O)O)C(=O)O)cc1 (stereo not shown) [MTX-ketone]
cytotoxicity of ketone analogue compared with native drug [5]: completely lost its cytotoxicity

SMILES: CCC1(O)C(=O)OCc2c1cc1n(c2=O)Cc2c-1nc1ccccc1c2C(F)(F)CCCC(C)=O (stereo not shown) [CPT-ketone]
IC50 comparison, cytotoxicity on HiFR KB cells [6]: relatively similar IC50 values | IC50 ([2]; cell line U-87): 10 nM | IC50 ([2]; light or radiation study, comparator in prodrug 6 irradiation experiment): 5 nM

Continued, values first:

IC50 [3]: 35000 nM
SMILES: CC(=O)CCCC(F)(F)c1nc(C(N)=O)c2nnn(C)c(=O)n12 [TMZ-ketone]

IC50 [4]: 17000 nM
SMILES: COc1cc(Nc2c(C#N)c(C(F)(F)CCCC(C)=O)nc3cc(OCCCN4CCN(C)CC4)c(OC)cc23)c(Cl)cc1Cl [Bosutinib-ketone]

IC50 [4]: 17000 nM
SMILES: COc1cc(Nc2c(C#N)cnc3cc(OCCCN4CCN(C)CC4)c(OC)cc23)c(Cl)cc1Cl [Bosutinib, bosutinib, reference compound]

IC50 [3]: 36000 nM
SMILES: Cn1nnc2c(C(N)=O)ncn2c1=O [TMZ, temozolomide, reference compound]
